The source of these data is paper PMC11091117, “A fluorescently-tagged tick kinin neuropeptide triggers peristalsis and labels tick midgut muscles” (Scientific Reports, 2024).

This assay has as its system vector-only (V/O) CHO-K1 cells. Description: Cellular end-point fluorescence calcium mobilization assay, vector-only control cells. It counts as cell-based. The following applies: 10 µM peptide, Fluo-8, 29 °C, 60 s, 4 technical replicates. The text has this:
Three peptides were used in this study. These included: 1) the ligand for the endogenous tick kinin receptor from Rhipicephalus sanguineus, Rhisa-kinin 8 peptide of sequence GTGEDQAFSPWGamide (Rhisa-K-8; RK8; of identical sequence to Rhimi-K-8 in Rhipicephalus microplus)[48], 2) the same peptide but fluorescently labeled at the N-terminus with tetramethylrhodamine (TMR) a red fluorescent dye, designated TMR-Rhisa-K-8 (TMR-RK8), and 3) a labeled peptide synthesized with the scrambled sequence of the kinin ligand, designated TMR-Scrambled. The sequence of TMR-RK8 was TMR-C-GTGEDQAFSPWGamide). The TMR-Scrambled kinin (TMR-C-GTQWGPGFEADSamide) served as a negative control for tissue labeling. […]
A fluorescence-based intracellular calcium mobilization end-point assay described by Xiong, et al.[50] was used to confirm the activity of the TMR-labeled RK8 peptide on a cell line expressing the tick kinin receptor. […] The calcium fluorescence signal was detected by a CLARIOstar (BMG LABTECH, Chicago, IL, United States) plate reader set to read at the fluorescence plate-mode with excitation and emission wavelengths of 490 and 525 nm at 29 °C. Calcium responses were read immediately after the addition of 10 µL of either TMR-RK8, unlabeled RK8, or blank solvent (1% DMSO in HBSS). […]

As for TMR-C-GTGEDQAFSPWGamide [TMR-RK8], the “calcium fluorescence response of vector-only cells (in words)” value is “invariable background fluorescence”.
